Reference: patent US12441693B2, “Targeting STAT sumoylation to enhance immune responses” (THE GEORGE WASHINGTON UNIVERSITY, priority 2018, dated 2025)
Read-outs that look alike come from different tables or passages of the source.

Test system: NK cells
Procedure: To determine if STAT SUMOylation increases Gzm B expression in NK cells, isolated human NK cells were analyzed after a 3-day incubation with either IL-2, IL-15, HODHBt, IL-2+IL-15, HODHBt+IL-2, HODHBt+IL-15, or HODHBt+IL-2+IL-15.
To further characterize the effects of STAT SUMOylation inhibition in NK cell function, primary human NK cells were isolated and cultured with IL-15 in the presence or absence of HODHBt. 48 hours later, cells were phenotyped by flow cytometry.
To characterize the induction of other proteins known to be important for the cytolytic activity of NK cells, primary human NK cells were isolated from 6 male and 6 female donors and cultured with IL-15 in the presence or absence of HODHBt. 48 hours later, levels of Granzyme A (FIG. 18A), Perforin (FIG. 18B), Granulysin (FIG. 18C), TRAIL (FIG. 18D) and Fas ligand (FASL) (FIG. 18E) were analyzed by flow cytometry.
Antibody-dependent cell-mediated cytotoxicity (ADCC) is mediated by the recognition of an antibody bound to a cell through an Fc receptor present in NK cells, mostly CD16 (FCGR3A). To address whether inhibiting STAT SUMOylation alters CD16 expression in the surface of NK cells, freshly isolated NK cells were treated with either IL-15, HODHBt or a combination of both for 48 hours and surface expression of CD16 was measured by flow cytometry.
Since IL-15 activated STATs, it was hypothesized that STATs, and in particular STAT1, was controlling expression of CXCR5 (C—X—C Motif Chemokine Receptor 5) and that inhibiting STAT SUMOylation enhances CXCR5 expression and promotes migration towards a CXCL13 (C—X—C Motif Chemokine Ligand 13) gradient. CXCL13 controls homing of lymphocytes to follicles in lymph nodes; however whether this mechanism of regulation exists in human NK cells and whether IL-15 controls expression were unknown. To address which one of the two scenarios was potentially playing a role in the presence of NK cells within the follicles, human NK cells were treated with IL-15, HODHBt or a combination of both for 48 hours. Surface expression of CXCR5 and viability were next measured by flow cytometry.
To phenotype the cells, 1×10^5 cells were stained with a viability dye (Fixable Viability Dye eFluor 450, Affymetrix, eBioscience, San Diego, CA) and the surface marker-specific mAb specific for human: PE-anti-CD25 (Caltag, Burlingame, CA) and PE-anti-CD69 (Caltag, Burlingame, CA) followed by flow cytometric analysis in a BD FACScanto II flow cytometer using the FACSDiva software (Becton Dickinson, Mountain View, CA) and analyzed using FlowJo (Tree Star Inc., Ashland, OR).

O=c1c2ccccc2nnn1O [HODHBt]
Gzm B expression in NK cells (percentage of cells and MFI) (3-day incubation, with IL-2, IL-15 or both): increased Gzm B expression in NK cells treated with IL-2, IL-15 or a combination of both
surface expression of CD16 on NK cells (48 hours, with or without IL-15): sufficient to increase the levels of CD16 expression in NK cells independent of the presence of IL-15
surface expression of CXCR5 on NK cells (IL-15 in the presence of HODHBt, 48 hours): dramatically increased in the presence of HODHBt
expression of GZMB in NK cells (combination of IL-15 and HODHBt, 48 hours): greatly increased the expression of GZMB
expression of Granzyme A, Perforin, Granulysin, TRAIL and FASL in NK cells (combination of IL-15 and HODHBt, vs IL-15 control, 48 hours): enhanced gene expression above IL-15 control
viability / survival of NK cells (human, 48 h): did not affect the viability of NK cells either alone or in combination with IL-15
surface expression of CD69 and CD25 on NK cells (in combination with IL-15, vs IL-15 alone, 48 hours): enhanced the expression of both surface markers over IL-15 alone
surface expression of CD25 on NK cells (single agent, 48 hours): did not change the surface expression
surface expression of CD69 on NK cells (single agent, 48 hours): did not change the surface expression of CD69
expression of GZMB in NK cells (single agent, vs media control, 48 hours): did not have any effect over media control
